Experimental data from DBAASP.
Values after ≈ are worked out from the molar mass of the structure shown. Values joined by “and” are separate entries in the source; they are usually repeats but may differ in a detail not shown here. Equal values may be shown once.

How the values were obtained:
Assay in all cases: ≥ marks a high value that may be exact or a test limit, other limits are often not marked, values filed in µg/mL are converted to µM
[1] = test system: Candida albicans NCYC 1467
[2] = test system: Escherichia coli NCTC 10418
[3] = test system: Pseudomonas aeruginosa ATCC 27853
[4] = test system: Staphylococcus aureus ATCC 12493
[5] = test system: Staphylococcus aureus NCTC 10788
[6] = test system: Candida albicans NCPF 1467
[7] = test system: Bacillus cereus ATCC 14579
[8] = test system: Bacillus subtilis ATCC 23857
[9] = test system: Candida albicans ATCC 90028
[10] = test system: Cryptococcus neoformans ATCC 28957
[11] = test system: Escherichia coli ATCC 25922
[12] = test system: Fusarium oxysporum f.sp. vasinfectum
Fusarium oxysporum = test system: Fusarium oxysporum
Fusarium solani = test system: Fusarium solani
[13] = test system: Pectobacterium carotovorum
[14] = test system: Pseudomonas syringae pv. tabaci
Ramulariopsis gossypii = test system: Ramulariopsis gossypii
[15] = test system: Staphylococcus aureus ATCC 25923
Trichoderma asperellum = test system: Trichoderma asperellum
[16] = test system: Xanthomonas campestris pv. citri
[17] = test system: Bacillus subtilis CMCC 63501
[18] = test system: Enterococcus faecalis ATCC 29212
Escherichia coli UB1005 = test system: Escherichia coli UB1005
[19] = test system: Salmonella enterica subsp. enterica serovar Pullorum C79-13
[20] = test system: Salmonella typhimurium ATCC 7731
[21] = test system: Staphylococcus aureus ATCC 29213
[22] = test system: Staphylococcus aureus ATCC 43300
[23] = test system: Staphylococcus epidermidis ATCC 12228
[24] = test system: Candida albicans CGMCC 2.2086
Candida albicans = test system: Candida albicans
[25] = test system: Candida krusei CGMCC 2.1857
[26] = test system: Candida parapsilosis CGMCC 2.3989
[27] = test system: Candida tropicalis CGMCC 2.1975
Escherichia coli 1005 = test system: Escherichia coli 1005
[28] = test system: Salmonella enterica subsp. enterica serovar Pullorum ATCC 7913
[29] = test system: Salmonella enterica subsp. enterica serovar Typhimurium ATCC 14028
Bacillus megaterium Bm11 = test system: Bacillus megaterium Bm11
Escherichia coli D21 = test system: Escherichia coli D21
Escherichia coli ML-35 = test system: Escherichia coli ML-35
[30] = test system: Serratia marcescens ATCC 8100
[31] = test system: Escherichia coli K12 MG1655

CC[C@H](C)[C@@H]1NC(=O)[C@H](CO)NC(=O)[C@H](CCCCN)NC(=O)[C@H]([C@@H](C)O)NC(=O)[C@H](Cc2c[nH]c3ccccc23)NC(=O)[C@@H](NC(=O)CNC(=O)[C@H](CCCN=C(N)N)NC(=O)[C@H](CC(C)C)NC(=O)[C@H](C)N)CSSC[C@@H](C(=O)N[C@@H](CCCCN)C(N)=O)NC(=O)[C@@H]2CCCN2C(=O)[C@H](CCCCN)NC(=O)[C@@H]2CCCN2C(=O)[C@@H]2CCCN2C1=O [ALRGCWTKSIPPKPCK]
MIC [1]: ≥ 512 µM
MIC [2]: ≥ 512 µM
MIC [3]: > 512 µM
MIC [4]: ≥ 512 µM
MIC [5]: ≥ 512 µM

CC[C@H](C)[C@H](NC(=O)CN)C(=O)NCC(=O)NCC(=O)N[C@@H](C)C(=O)N[C@@H](CC(C)C)C(=O)N[C@@H](CC(C)C)C(=O)N[C@@H](CO)C(=O)N[C@@H](Cc1ccccc1)C(=O)NCC(=O)N[C@@H](CCCCN)C(=O)N[C@@H](CO)C(=O)N[C@@H](C)C(=O)N[C@@H](CC(C)C)C(=O)N[C@@H](CCCCN)C(=O)NCC(=O)N[C@@H](CC(C)C)C(=O)N[C@@H](C)C(=O)N[C@@H](CCCCN)C(=O)NCC(=O)N[C@@H](CC(C)C)C(=O)N[C@@H](C)C(=O)N[C@@H](CCC(=O)O)C(=O)N[C@@H](Cc1cnc[nH]1)C(=O)N[C@@H](Cc1ccccc1)C(N)=O [GIGGALLSFGKSALKGLAKGLAEHF]
MIC [6]: 1.64 µM (≈ 4 µg/mL)
MIC [2]: 6.55 µM (≈ 16 µg/mL)
MIC [3]: 26.2 µM (≈ 64 µg/mL)
MIC [4]: 6.55 µM (≈ 16 µg/mL)
MIC [5]: 1.64 µM (≈ 4 µg/mL)

CSCC[C@H](NC(=O)[C@H](Cc1ccccc1)NC(=O)CNC(=O)[C@H](Cc1cnc[nH]1)NC(=O)[C@H](CC(C)C)NC(=O)[C@H](CO)NC(=O)CN)C(=O)N[C@@H](Cc1ccc(O)cc1)C(=O)N[C@@H](CCCN=C(N)N)C(=O)N[C@@H](Cc1ccc(O)cc1)C(=O)N[C@@H](CC(C)C)C(=O)N[C@@H](CCCCN)C(=O)N[C@@H](CC(N)=O)C(=O)N[C@@H](CCSC)C(=O)N[C@H](C(=O)N[C@@H](CC(C)C)C(=O)N[C@@H](CC(N)=O)C(=O)N[C@@H](CC(C)C)C(=O)N[C@@H](Cc1ccccc1)C(N)=O)C(C)C [GSLHGFMYRYLKNMVLNLF]
MIC [7]: ≥ 64 µM
MIC [8]: 8 µM (≈ 18.4 µg/mL)
MIC [9]: 2.67 µM (≈ 6.15 µg/mL)
MIC [10]: 8 µM (≈ 18.4 µg/mL)
MIC [11]: 32 µM (≈ 73.7 µg/mL)
MIC [12]: 8 µM (≈ 18.4 µg/mL)
MIC (Fusarium oxysporum): ≥ 32 µM
MIC (Fusarium solani): 16 µM (≈ 36.8 µg/mL)
MIC [13]: ≥ 128 µM
MIC [3]: 32 µM (≈ 73.7 µg/mL)
MIC [14]: 16 µM (≈ 36.8 µg/mL)
MIC (Ramulariopsis gossypii): 4 µM (≈ 9.21 µg/mL)
MIC [15]: 4 µM (≈ 9.21 µg/mL)
MIC (Trichoderma asperellum): ≥ 32 µM
MIC [16]: ≥ 64 µM

CC[C@H](C)[C@H](N)C(=O)N[C@@H](Cc1cnc[nH]1)C(=O)N[C@@H](CCCCN)C(=O)N[C@@H](Cc1ccccc1)C(=O)N[C@@H](Cc1c[nH]c2ccccc12)C(=O)N[C@@H](CCCN=C(N)N)C(=O)NCC(=O)NCC(=O)N[C@@H](CCCN=C(N)N)C(=O)N[C@@H](Cc1c[nH]c2ccccc12)C(=O)N[C@@H](Cc1ccccc1)C(=O)N[C@@H](CCCCN)C(=O)N[C@@H](Cc1cnc[nH]1)C(=O)N[C@H](C(N)=O)[C@@H](C)CC [IHKFWRGGRWFKHI]
MIC [17]: 16 µM (≈ 29.9 µg/mL)
MIC [18]: 32 µM (≈ 59.8 µg/mL)
MIC [11]: 8 µM (≈ 14.9 µg/mL)
MIC (Escherichia coli UB1005): 8 µM (≈ 14.9 µg/mL)
MIC [3]: 16 µM (≈ 29.9 µg/mL)
MIC [19]: 8 µM (≈ 14.9 µg/mL)
MIC [20]: ≥ 64 µM
MIC [21]: 16 µM (≈ 29.9 µg/mL)
MIC [22]: 32 µM (≈ 59.8 µg/mL)
MIC [23]: 32 µM (≈ 59.8 µg/mL)

CC[C@H](C)[C@H](N)C(=O)N[C@H](C(=O)N[C@@H](CCCN=C(N)N)C(=O)N[C@@H](CCCN=C(N)N)C(=O)N[C@H](C(=O)N[C@@H](CCCN=C(N)N)C(=O)N[C@@H](CCCN=C(N)N)C(=O)N[C@H](C(=O)N[C@H](C(N)=O)[C@@H](C)CC)[C@@H](C)CC)[C@@H](C)CC)[C@@H](C)CC [IIRRIRRII]
MIC [24]: ≥ 64 µM
MIC (Candida albicans): > 64 µM
MIC [25]: 16 µM (≈ 19.3 µg/mL)
MIC [26]: ≥ 64 µM
MIC [27]: 4 µM (≈ 4.83 µg/mL)
MIC (Escherichia coli 1005): 16 µM (≈ 19.3 µg/mL)
MIC [11]: 32 µM and 64 µM
MIC [28]: ≥ 32 µM
MIC [29]: 64 µM (≈ 77.3 µg/mL)
MIC [15]: > 64 µM
MIC [21]: 64 µM (≈ 77.3 µg/mL)
MIC [22]: 64 µM (≈ 77.3 µg/mL)
MIC [23]: 64 µM (≈ 77.3 µg/mL)

CC(C)C[C@H](NC(=O)[C@H](Cc1ccc(O)cc1)NC(=O)[C@@H]1CCCN1C(=O)[C@@H]1CCCN1C(=O)[C@H](CCCN=C(N)N)NC(=O)[C@@H]1CCCN1C(=O)[C@H](CCCCN)NC(=O)[C@H](CCCCN)NC(=O)[C@@H](N)CCCCN)C(=O)N1CCC[C@H]1C(=O)N[C@@H](CCCN=C(N)N)C(=O)N1CCC[C@H]1C(=O)N[C@@H](CCCN=C(N)N)C(=O)N1CCC[C@H]1C(=O)N1CCC[C@H]1C(=O)O [KKKPRPPYLPRPRPP]
MIC (Bacillus megaterium Bm11): 16 µM (≈ 29.2 µg/mL)
MIC (Escherichia coli D21): 1 µM (≈ 1.83 µg/mL)
MIC (Escherichia coli ML-35): 2 µM (≈ 3.65 µg/mL)
MIC [29]: 0.5 µM (≈ 0.914 µg/mL)
MIC [30]: 8 µM (≈ 14.6 µg/mL)
MIC [23]: > 64 µM

NC(=O)[C@H](CCCN=C(N)N)NC(=O)[C@H](Cc1c[nH]c2ccccc12)NC(=O)[C@H](Cc1c[nH]c2ccccc12)NC(=O)[C@H](CCCN=C(N)N)NC(=O)[C@H](CCCN=C(N)N)NC(=O)[C@H](Cc1c[nH]c2ccccc12)NC(=O)[C@H](CCCN=C(N)N)NC(=O)[C@H](CCCN=C(N)N)NC(=O)[C@H](Cc1c[nH]c2ccccc12)NC(=O)[C@H](Cc1c[nH]c2ccccc12)NC(=O)[C@@H](N)CCCN=C(N)N [RWWRRWRRWWR]
MIC (Candida albicans): 4 µM (≈ 7.54 µg/mL)
MIC [25]: 2 µM (≈ 3.77 µg/mL)
MIC [26]: 16 µM (≈ 30.2 µg/mL)
MIC [27]: 2 µM (≈ 3.77 µg/mL)
MIC (Escherichia coli 1005): 8 µM (≈ 15.1 µg/mL)
MIC [28]: 4 µM (≈ 7.54 µg/mL)
MIC [29]: 8 µM (≈ 15.1 µg/mL)
MIC [15]: 8 µM (≈ 15.1 µg/mL)
MIC [21]: 4 µM (≈ 7.54 µg/mL)
MIC [22]: 4 µM (≈ 7.54 µg/mL)
MIC [23]: 4 µM (≈ 7.54 µg/mL)

CC(C)C[C@H](NC(=O)[C@H](Cc1ccccc1)NC(=O)[C@H](CCCCN)NC(=O)[C@@H](N)CO)C(=O)N[C@@H](CO)C(=O)N[C@@H](CCCCN)C(=O)N[C@@H](CCCCN)C(=O)N1CCC[C@H]1C(=O)N[C@@H](CCCCN)C(=O)N[C@@H](CCCCN)C(=O)N[C@@H](CC(C)C)C(=O)N[C@@H](Cc1ccccc1)C(=O)N[C@@H](Cc1c[nH]c2ccccc12)C(=O)N[C@@H](Cc1ccccc1)C(=O)N[C@@H](CCCN=C(N)N)C(=O)N[C@@H](C)C(=O)O [SKFLSKKPKKLFWFRA]
MIC [31]: ≥ 63.6 µM
